Reference: ChEMBL document CHEMBL5143574, “Unraveling the anti-virulence potential and antifungal efficacy of 5-aminotetrazoles using the zebrafish model of disseminated candidiasis” (Eur J Med Chem, 2022)
Activity calls are given as the source filed them. The rule behind the calls is not given here.

Assays:
Candida albicans [1] = experiment: Indifferent antifungal activity against Candida albicans SC5314 assessed as fractional inhibitory concentration index incubated for 24 hrs in RPMI medium in presence of nystatin by checkerboard assay; type: functional
Candida albicans [2] = experiment: Anti-virulence activity against 53-75 RFP expressing cells of Candida albicans M137 in hind brain of zebra fish embryo disseminated candidiasis model assessed as inhibition of fungal filamentation by measuring reduction of hyphae formation in the hind brain at 2.5 to 10 uM treated at 1 hr post-infection and measured on day 4 post infection by fluorescence microscopy; type: functional; set-up: scale not given: the % may be the effect or the level left; conditions: dose 2.5-10 µM, time 4 day
Candida albicans [3] = experiment: Anti-virulence activity against Candida albicans SC5314 assessed as inhibition of fungal filamentation by measuring reduction in hyphae formation in GlcNAc medium upto 10 uM incubated for 3 to 5 days by stereomicroscopic analysis; type: functional, organism-based; conditions: time 3-5 day
Candida albicans [4] = experiment: Anti-virulence activity against Candida albicans SC5314 assessed as inhibition of fungal filamentation by measuring reduction of hyphae formation in RPMI medium at 1.3 uM incubated for 3 to 5 days by stereomicroscopic analysis; type: functional, organism-based; conditions: time 3-5 day
Candida albicans [5] = experiment: Anti-virulence activity against Candida albicans SC5314 assessed as inhibition of fungal filamentation by measuring reduction of hyphae formation in Spider medium at 2.5 uM incubated for 3 to 5 days by stereomicroscopic analysis; type: functional; conditions: time 3-5 day
Candida albicans [6] = experiment: Anti-virulence activity against Candida albicans SC5314 assessed as inhibition of fungal filamentation by measuring reduction of hyphae formation in Lee medium at 1.3 uM incubated for 3 to 5 days by stereomicroscopic analysis; type: functional, organism-based; conditions: time 3-5 day
[7] = Toxicity in zebrafish embryos assessed as mortality treated at 6 hpf and measured at 120 hpf by stereomicroscopic analysis; set-up: species or system Danio rerio; conditions: in vivo
[8] = Toxicity in zebrafish embryos assessed as toxic responses at 200 uM treated at 6 hpf and measured at 120 hpf by stereomicroscopic analysis; set-up: species or system Danio rerio; conditions: in vivo, 24 h
Candida albicans [9] = experiment: Antifungal activity against Candida albicans SC5314 assessed as inhibition of fungal growth incubated for 24 hrs by broth microdilution assay; type: functional
Candida albicans [10] = experiment: Anti-virulence activity against 120-140 RFP expressing cells of Candida albicans M137 infected in hind brain of zebra fish embryo disseminated candidiasis model assessed as embryo survival rate upto 10 uM in presence of 0.13 to 1 ug/ml nystatin measured at 120 hpf; type: functional; conditions: up to 10 µM
Candida albicans [11] = experiment: (§1) Anti-virulence activity against 120-140 RFP expressing cells of Candida albicans M137 infected in hind brain of zebra fish embryo disseminated candidiasis model assessed as embryo survival rate at 10 uM in presence of 0.25 ug/ml nystatin measured at 120 hpf; type: functional
Candida albicans [12] = experiment: (§2) Anti-virulence activity against 53-75 RFP expressing cells of Candida albicans M137 in hind brain of zebra fish embryo disseminated candidiasis model assessed as reduction in mortality by measuring embryo survival rate treated at 1 hr post-infection and measured on day 4 post infection relative to control; type: functional; conditions: time 4 day
Candida albicans [13] = experiment: as §1, with “inhibition of fungal filamentation by measuring reduction of fungal hyphae formation” for “embryo survival rate”; type: functional
Candida albicans [14] = experiment: Anti-virulence activity against Candida albicans SC5314 assessed as inhibition of fungal filamentation by measuring reduction of hyphae formation in SLAD medium at 1.3 uM incubated for 3 to 5 days by stereomicroscopic analysis; type: functional, organism-based; conditions: time 3-5 day
Candida albicans [15] = experiment: as §2, with “activity” for “activity against”, “at 48 hrs” for “on day 4”, “(reference value: 40%)” for “relative to control”; type: functional
Candida albicans [16] = experiment: Anti-virulence activity against Candida albicans SC5314 assessed as inhibition of fungal filamentation by measuring reduction of hyphae formation in YPS medium at 2.5 uM incubated for 3 to 5 days by stereomicroscopic analysis; type: functional; conditions: time 3-5 day
Candida albicans [17] = experiment: as §2, with “(reference value: 10%)” for “relative to control”; type: functional; conditions: time 4 day
Candida albicans [18] = experiment: Anti-virulence activity against Candida albicans SC5314 assessed as inhibition of fungal filamentation by measuring reduction of hyphae formation in YPS plus uridine medium at 1.3 uM incubated for 3 to 5 days by stereomicroscopic analysis; type: functional, organism-based; conditions: time 3-5 day
Candida albicans [19] = experiment: Anti-virulence activity against Candida albicans SC5314 assessed as inhibition of fungal filamentation by measuring reduction in hyphae formation in YPS plus uridine medium upto 10 uM incubated for 3 to 5 days by stereomicroscopic analysis; type: functional, organism-based; conditions: time 3-5 day
Candida albicans [20] = experiment: Anti-virulence activity against 120-140 RFP expressing cells of Candida albicans M137 infected in hind brain of zebra fish embryo disseminated candidiasis model assessed as embryo mortality at 10 uM measured at 120 hpf; type: functional
[21] = Reduction of nystatin resistance against Candida albicans SC5314 assessed as nystatin MIC at 5 to 10 uM measured after consecutive treatment with nystatin for 12 days; type: functional; conditions: SC5314, 288 h, dose 5-10 µM
Candida albicans [22] = experiment: Anti-virulence activity against Candida albicans SC5314 assessed as inhibition of fungal filamentation by measuring reduction of hyphae formation in GlcNAc medium at 2.5 uM incubated for 3 to 5 days by stereomicroscopic analysis; type: functional; conditions: time 3-5 day
Candida albicans [23] = experiment: Anti-virulence activity against Candida albicans SC5314 assessed as inhibition of fungal filamentation by measuring reduction in hyphae formation in YPS medium upto 10 uM incubated for 3 to 5 days by stereomicroscopic analysis; type: functional, organism-based; conditions: time 3-5 day
Candida albicans [24] = experiment: Anti-virulence activity against Candida albicans SC5314 assessed as inhibition of fungal filamentation by measuring reduction of hyphae formation in RPMI medium upto 10 uM incubated for 3 to 5 days by stereomicroscopic analysis; type: functional, organism-based; conditions: time 3-5 day
[25] = Toxicity against zebrafish embryo infected with 53-75 RFP expressing cells of Candida albicans M137 assessed as mortality at 2.5 to 10 uM treated at 1 hr post-infection and measured on day 4 post-infection; set-up: species or system Danio rerio; conditions: 96 h, dose 2.5-10 µM, time 4 day
Candida albicans [26] = experiment: Anti-virulence activity against Candida albicans SC5314 assessed as inhibition of fungal filamentation by measuring reduction of hyphae formation in YPS medium at 1.3 uM incubated for 3 to 5 days by stereomicroscopic analysis; type: functional, organism-based; conditions: time 3-5 day
Candida albicans [27] = experiment: Anti-virulence activity against Candida albicans SC5314 assessed as inhibition of fungal filamentation by measuring reduction of hyphae formation in Spider medium at 1.3 uM incubated for 3 to 5 days by stereomicroscopic analysis; type: functional, organism-based; conditions: time 3-5 day
Candida albicans [28] = experiment: Anti-virulence activity against Candida albicans SC5314 assessed as inhibition of fungal filamentation by measuring reduction in hyphae formation in SLAD medium upto 10 uM incubated for 3 to 5 days by stereomicroscopic analysis; type: functional, organism-based; conditions: time 3-5 day
Candida albicans [29] = experiment: Anti-virulence activity against Candida albicans SC5314 assessed as inhibition of fungal filamentation by measuring reduction in hyphae formation in Spider medium upto 10 uM incubated for 3 to 5 days by stereomicroscopic analysis; type: functional, organism-based; conditions: time 3-5 day
Candida albicans [30] = experiment: Anti-virulence activity against Candida albicans SC5314 assessed as inhibition of fungal filamentation by measuring reduction of hyphae formation in SLAD medium at 2.5 uM incubated for 3 to 5 days by stereomicroscopic analysis; type: functional; conditions: time 3-5 day
Candida albicans [31] = experiment: as §1, with “M137 expressing” for “M137”, “inhibition of fungal filamentation by measuring reduction of hyphae formation” for “embryo survival rate”, “1” for “0.25”; type: functional; set-up: scale not given: the % may be the effect or the level left
Candida albicans [32] = experiment: Anti-virulence activity against Candida albicans SC5314 assessed as inhibition of fungal filamentation by measuring reduction of hyphae formation in GlcNAc medium at 1.3 uM incubated for 3 to 5 days by stereomicroscopic analysis; type: functional, organism-based; conditions: time 3-5 day
Candida albicans [33] = experiment: Anti-virulence activity against Candida albicans SC5314 assessed as inhibition of fungal filamentation by measuring reduction in hyphae formation in Lee medium upto 10 uM incubated for 3 to 5 days by stereomicroscopic analysis; type: functional, organism-based; conditions: time 3-5 day

SMILES: Nc1nnnn1CCC12CC3CC(CC(C3)C1)C2
- fractional inhibitory concentration index (FICI) (Candida albicans [1]): 1
- Activity (Candida albicans [2]): 100%
- Activity (Candida albicans [3]): Active
- Activity (Candida albicans [4]): Active
- inhibition at 2.5 µM (Candida albicans [5]): 100%
- Activity (Candida albicans [6]): Active
- LC50 [7]: > 200 µM
- Activity [8]: Non-Toxic
- MIC (Candida albicans [9]): > 200 µM
- Survival (Candida albicans [10]): <=80%
- survival at 10 µM (Candida albicans [11]): ≤ 30%
- fold change (FC) (Candida albicans [12]): 7
- inhibition in vivo at 10 µM (Candida albicans [13]): ≤ 30%
- Activity (Candida albicans [14]): Active
- Survival (Candida albicans [15]): 50%
- inhibition at 2.5 µM (Candida albicans [16]): 100%
- Survival (Candida albicans [17]): 70%
- Activity (Candida albicans [18]): Active
- Activity (Candida albicans [19]): Active
- mortality at 10 µM (Candida albicans [20]): 80%
- MIC [21]: 1 µg/mL
- inhibition at 2.5 µM (Candida albicans [22]): 100%
- Activity (Candida albicans [23]): Active
- Activity (Candida albicans [24]): Active
- Activity [25]: Non-Toxic
- Activity (Candida albicans [26]): Active
- Activity (Candida albicans [27]): Active
- Activity (Candida albicans [28]): Active
- Activity (Candida albicans [29]): Active
- inhibition at 2.5 µM (Candida albicans [30]): 100%
- Activity (Candida albicans [31]): 100%
- Activity (Candida albicans [32]): Active
- Activity (Candida albicans [33]): Active
